Results: ChEMBL document CHEMBL4266048, “Halogenated Meroditerpenoids from a South Pacific Collection of the Red Alga Callophycus serratus” (J Nat Prod, 2018)
Activity calls are given as the source filed them. The rule behind the calls is not given here.

Tested on: HL-60
Test: Cytotoxicity against human HL60 cells after 48 hrs by MTT assay
Format: functional, cell-based
Details: for IC50: HL-60, 48 h

| SMILES | IC50 | Activity |
| --- | --- | --- |
| CC1=C2Cc3cc(ccc3O)C(=O)OC(C)(C)[C@H](Br)CC[C@]3(C)O[C@H]3C[C@]2(C)[C@@H](Br)CC1 [BROMOPHYCOLIDE T] | 6 µM | – |
| CC1=C2Cc3cc(ccc3O)C(=O)O[C@H](C(C)(C)Br)CC[C@](C)(O)[C@H](Br)CC[C@]2(C)[C@@H](Br)CC1 | 6.2 µM | – |
| C=C1CC[C@@H](Br)C(C)(C)[C@H]1CC[C@@]1(C)[C@H](Cc2cc(Br)ccc2O)/C(=C/I)CC[C@@H]1Br | 5.1 µM | – |
| C=C1CC=CC(C)(C)[C@H]1CC[C@@]1(C)[C@H](Cc2cc(Br)ccc2O)/C(=C/I)CC[C@@H]1Br | – | inactive |
| CC[C@H](/C=C(/C)[C@@H]1C[C@@H](OC)C[C@H](O)C(C)(C)[C@@]2(O)O[C@@H](C[C@@H](OC)[C@H](O)C(=O)O1)C[C@@H](OC)[C@H]2O)CO | 10 µM | – |
